In paper PMC5603603, “Linoleic and palmitoleic acid block streptokinase-mediated plasminogen activation and reduce severity of invasive group A streptococcal infection” (Scientific Reports, 2017):
Values joined by “and” are separate entries in the source; they are usually repeats but may differ in a detail not shown here. Equal entries are not always repeated.

Columns and labels:
[1] = molecular target: cluster 2b type streptokinase (Streptococcus pyogenes, UniProt P10520); parameters: species or system group A streptococcal strain A314; settings: cell-based; for IC50: cluster 2b; for fold lower IC50 compared to TXA and EACA: streptokinase cluster type 2b
Procedure: (§1) Then inhibitory compounds (LA, PA, oleic, myristic, stearic, palmitic, arachidonic, arachidic, linolenic acid, TXA or EACA) were added. Stocks of LA and PA were prepared in methanol and then diluted in PBS. Stocks of arachidic, oleic, arachidonic, myristic, palmitic, stearic and linolenic acid were prepared in 60% DMSO/PBS and then diluted in PBS. The untreated control received the same amount of PBS as in case of TXA and EACA as control or the same amount of methanol diluted in PBS as in case of LA and PA, respectively, or the same amount of DMSO diluted in PBS as in case of the other commercially available fatty acids. […] The assay was incubated at 37 °C and measured at the beginning of the reaction and then every hour at 405 nm after 3 sec of shaking on a Tecan Sunrise ELISAReader using Magellan software. Each experiment was repeated three times. IC50 values were calculated using Microsoft® Excel software.

[2] = molecular target: cluster 2a type streptokinase (Streptococcus pyogenes, UniProt A0A288R465); assay: biochemical; assay type: biochemical, group A streptococcal strain A614; settings: supernatant-based; for IC50 / fold lower concentration for the same range of inhibition as oleic and linolenic acid: cluster 2a; for fold lower IC50-values than TXA and EACA: cluster 2a type streptokinase
[3] = molecular target: cluster 1 type streptokinase (Streptococcus pyogenes, UniProt P10520); assay type: biochemical, group A streptococcal strain A328; settings: supernatant-based; for IC50: cluster 1; for fold lower IC50-values than TXA and EACA: cluster 1 type streptokinase
Chain of cluster 1 type streptokinase (P00747 20-810): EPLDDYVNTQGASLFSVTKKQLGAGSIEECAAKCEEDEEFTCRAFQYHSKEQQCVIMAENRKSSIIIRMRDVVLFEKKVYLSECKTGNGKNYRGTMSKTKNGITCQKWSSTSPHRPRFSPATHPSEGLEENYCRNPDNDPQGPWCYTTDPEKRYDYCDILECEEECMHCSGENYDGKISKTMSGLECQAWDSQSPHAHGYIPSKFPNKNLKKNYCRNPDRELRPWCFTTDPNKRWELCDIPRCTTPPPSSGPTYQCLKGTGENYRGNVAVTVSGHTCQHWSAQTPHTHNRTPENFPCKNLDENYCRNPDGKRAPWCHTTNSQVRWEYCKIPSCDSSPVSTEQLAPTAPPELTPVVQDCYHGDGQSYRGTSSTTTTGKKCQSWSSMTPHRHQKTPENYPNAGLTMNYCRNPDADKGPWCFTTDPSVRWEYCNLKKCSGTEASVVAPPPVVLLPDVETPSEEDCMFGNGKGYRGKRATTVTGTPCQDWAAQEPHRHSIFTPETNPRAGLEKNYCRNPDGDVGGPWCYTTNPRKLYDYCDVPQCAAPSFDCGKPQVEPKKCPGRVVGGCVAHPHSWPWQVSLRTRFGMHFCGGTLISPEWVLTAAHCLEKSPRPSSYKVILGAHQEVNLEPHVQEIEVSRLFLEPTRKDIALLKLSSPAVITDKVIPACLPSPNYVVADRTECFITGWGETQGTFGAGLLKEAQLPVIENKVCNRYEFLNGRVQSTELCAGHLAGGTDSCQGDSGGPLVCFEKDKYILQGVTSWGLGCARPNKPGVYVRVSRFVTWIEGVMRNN
Chain of cluster 1 type streptokinase (P10520 27-440): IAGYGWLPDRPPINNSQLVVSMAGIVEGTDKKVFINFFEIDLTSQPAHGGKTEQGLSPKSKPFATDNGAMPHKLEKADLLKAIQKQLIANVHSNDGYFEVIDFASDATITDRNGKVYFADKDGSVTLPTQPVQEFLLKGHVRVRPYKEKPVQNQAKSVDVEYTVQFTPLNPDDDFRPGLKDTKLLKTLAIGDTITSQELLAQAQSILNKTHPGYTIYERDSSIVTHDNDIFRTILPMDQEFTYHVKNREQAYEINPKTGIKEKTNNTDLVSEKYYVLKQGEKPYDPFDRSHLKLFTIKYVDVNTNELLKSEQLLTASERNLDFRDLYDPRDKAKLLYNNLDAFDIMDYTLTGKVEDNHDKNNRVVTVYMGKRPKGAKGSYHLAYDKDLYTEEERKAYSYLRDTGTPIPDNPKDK
Procedure: as §1, with “An overnight culture of the strain A328 (cluster 1 type) or A614 (cluster 2a type) was diluted 1:10 in pre-warmed THY medium and grown to an OD600 of around 0.5 at 37 °C. […] The pellet was resuspended in Tris-HCl buffer (50 mM Tris pH 7.5). Then” for “Then”, “added. Stocks of TXA and EACA were prepared in PBS.” for “added.”, “run” for “incubated”, “°C. The absorption was” for “°C and”

[4] = test system: S. pyogenes strain AP1; assay: Clotting assay, escape of streptococci from clot (cluster 2a type streptokinase); assay type: cell-based; settings: 30 µg/ml, after 4 h, p < 0.05
Procedure: To assess whether LA and PA influence the entrapment of bacteria within clots, a 50 ml overnight culture (THY medium) of the S. pyogenes strains AP1 or A666 was centrifuged at 4332 × g for 10 min. […] For clot induction, 100 µl citrate plasma, 100 µl of the respective bacterial suspension and 50 µl thrombin-reagent (Haemochrom Diagnostica) were used. […] Then clots were left untreated (treated with sodium citrate buffer only) or were treated with LA or PA (diluted in sodium citrate buffer). For clots formed with S. pyogenes strain A666, a final concentration of 60 µg/ml was used for both, LA and PA. For those formed with S. pyogenes strain AP1, a final concentration of 30 µg/ml was used. 50 µl of the supernatant of each sample were plated onto blood agar plates in serial dilutions at 0, 2 and 4 h after clot induction and incubated at 37 °C overnight. Colonies were counted the following day to assess the number of bacteria which had escaped the clot. […] Two independent experiments were performed. Standard deviations were calculated accordingly. Citrate plasma was obtained from healthy volunteers who gave their informed consent.

[5] = test system: S. pyogenes strain AP1; assay: Invasive humanized plasminogen murine infection model; assay type: in vivo, Humanized Plg transgenic AlbPLG1 mice; settings: 50 µg s.c. (approx. 2 mg/kg) once on day of infection; for Hazard ratio (Mantel-Haenszel) treated/untreated: 1 × 10^7 cfu AP1 s.c.; for survival time in comparison with the untreated group: p = 0.0021
Procedure: All animal experiments were performed in strict accordance with the guidelines of the “European Convention for the Protection of Vertebrate Animals used for Experimental and other Scientific purposes”, with the “Australian Code of Practice for the Care and Use of Animals for Scientific Purposes” and with the “Guidelines for the Care and Use of Laboratory Animals” (National Health and Medical Research Council, Australia). All experiments conducted in Germany were approved by the ethical board of “Niedersächsisches Landesamt für Verbraucherschutz und Lebensmittelsicherheit”, Oldenburg, Germany (animal ethics no.: 33.9-42502-04-12/1009). All experiments conducted in Australia were approved by the University of Queensland Animal Ethics Committee, Brisbane, Australia (animal ethics no.: SCMB/ 553/12/NHMRC). Humanized Plg transgenic AlbPLG1 mice, heterozygous for the human Plg gene[6], were bred and used in the animal facility at the Helmholtz Centre for Infection Research or at the Australian Infectious Disease Research Centre. An overnight culture of the strain AP1 (in THY medium) was re-inoculated in fresh THY medium and grown until mid-log phase (OD 0.4–0.6). Then the bacteria were centrifuged at 4332 × g for 10 min and washed twice in PBS. They were resuspended in PBS and adjusted to an OD of 1.0. Sex- and age-matched (eight- to sixteen-week-old) groups of C57Bl6/J huPlg positive transgenic mice were infected s.c. with 1 × 10^7 cfu of S. pyogenes strain AP1. Cohorts of 15–16 mice were used (the experiment was performed four times with cohorts of 3–5 mice). The specific inoculum dose was administered in a 100 µl volume. Untreated mice received PBS subcutaneously (s.c.) as a control on the day of infection. Treated mice received either 50 µg of linoleic acid (diluted in PBS) or 50 µg of palmitoleic acid (diluted in PBS) s.c. on the day of infection. During the experiment mice were monitored for locomotion, behavior, appearance and weight. Mice were euthanized when they lost more than 20% of weight or when they reached a score of two for three of the following parameters: locomotion, appearance or behavior (authority regulations). The experiment ended after 7 days or after all mice had died.
Significance was determined by using a two-tailed, paired student’s t-test. Survival data were analyzed using GraphPad Prism7 Software. Significance was determined by using a Mantel-Cox- and a Wilcoxon-Test.

| Compound | IC50 [1] | fold lower IC50 compared to TXA and EACA [1] | IC50 [2] | fold lower concentration for the same range of inhibition as oleic and linolenic acid [2] | fold lower IC50-values than TXA and EACA [2] | IC50 [3] | fold lower IC50-values than TXA and EACA [3] | GAS escaped from the clot compared to the untreated clot [4] | Hazard ratio (Mantel-Haenszel) treated/untreated [5] | survival time in comparison with the untreated group [5] |
| --- | --- | --- | --- | --- | --- | --- | --- | --- | --- | --- |
| CCCCC/C=C\C/C=C\CCCCCCCC(=O)O [LA, linoleic acid] | 64.5 µM and 61.7 µM | 1000 fold | 156 µM and 149 µM | 3–4 fold | 500–1000 fold | 46.6 µM and 46 µM | 500–1000 fold | significantly lower amount of GAS escaped | 0.1429 | significantly extended the survival time |
| CCCCCC/C=C\CCCCCCCC(=O)O [PA, palmitoleic acid] | 61.1 µM and 63.3 µM | 1000 fold | 91.6 µM and 105 µM | 3–4 fold | 500–1000 fold | 40.9 µM | 500–1000 fold | significantly lower amount of GAS escaped | 0.1429 | significantly extended the survival time |
